Measurements reported in US11814448B2, “Carrier peptide fragment and use thereof” (TOAGOSEI CO., LTD., priority 2020, dated 2023).
FAM = FAM fluorescent dye

System: HeLa cells
Experiment: Evaluation of cell membrane permeability by flow cytometry (FAM fluorescence) in HeLa cells
Format: cell-based, human
Conditions: 20-hour incubation; for MFI (mean fluorescent intensity): 10 μM in culture medium, 0.5% DMSO, FL2 fluorescence detector; for introduction of the fluorescent dye (FAM) into the cytoplasm, from the histogram shift (FIG. 1), compared with Example 3 (FAM only): histogram of fluorescent intensity vs cell count
Protocol: The cell membrane permeability of sample 1 and sample 2 was evaluated using HeLa cells (an established cell line derived from human cervical cancer cells) as the eukaryotic cells.
HeLa cells were cultured on DMEM (Dulbecco's modified Eagle's medium (Cat. No. 043-30085, from FUJIFILM Wako Pure Chemical Corporation)) containing 10% FBS (fetal bovine serum), which is a general culture medium.
The HeLa cells attached to the culture plate were washed with PBS, a 0.25% trypsin/EDTA solution was then added, and incubation was carried out for 3 minutes at 37° C. After this incubation, the aforementioned DMEM containing 10% FBS was added and the trypsin was inactivated, and the cells were then sedimented by carrying out centrifugal separation for 5 minutes at 150×g. The supernatant produced by the centrifugal separation was removed, and the aforementioned DMEM containing 10% FBS was added to the sediment (cell pellet) to prepare a cell suspension containing approximately 1×10^5 cells/mL. The cells were seeded (approximately 2×10^5 cells/well) by the addition of 2 mL of this cell suspension to the wells of a commercial 6-well plate ((Iwaki microplate commercially available from AGC techno glass Co., Ltd). The cells were attached to the well bottom by culture for 3 hours at 37° C. under the condition of 5% CO2.
The 2 mM sample solution 1 was then diluted with the aforementioned DMEM containing 10% FBS to prepare a sample solution 1 in which the sample 1 concentration was 20 μM. After the aforementioned 3-hour culture, 1 mL of the culture supernatant was removed from the wells, followed by the addition to the wells of 1 mL of the 20 μM sample solution 1 (i.e., the concentration of sample 1 in the culture medium in the wells was brought to 10 μM and the DMSO concentration was brought to 0.5%). The cells were incubated for 20 hours at 37° C. under the condition of 5% CO2. After this 20-hour incubation, the culture supernatant was removed from the wells and the cells in the wells were washed twice with 1 mL PBS. 200 μL of 0.25% trypsin/EDTA was then added to the wells and incubation was carried out for 3 minutes at 37° C. After this incubation, the trypsin was inactivated by the addition of 400 μL of the aforementioned DMEM containing 10% FBS to the wells, and the cells were subsequently recovered by transferring the cell suspensions in the wells to a tube. The wells were then washed by the further addition of 600 μL PBS to the wells. The cells that had remained in the wells were recovered to the tube by transferring the PBS in the wells to the tube. Centrifugal separation was run on this tube for 5 minutes using conditions of 4° C. and 210×g. After the centrifugal separation, the supernatant was removed, the sediment (cell pellet) was suspended (washed) with 1 mL of PBS, and centrifugal separation was carried out using the same conditions as before. After this procedure has been repeated twice, the supernatant was removed to obtain cells (cell pellet) that had been cultured on a sample 1-containing culture medium.
The cell permeability of sample 1 was analyzed using the resulting cells (cell pellet) and a flow cytometer. An On-Chip Flow Cytometer (On-chip Biotechnologies Co., Ltd.) was used for the flow cytometer.
For this analysis, the cell pellet obtained as described above was suspended in 50 μL PBS. To this suspension was added 50 μL of 2×Sample Buffer for use with the indicated flow cytometer to prepare a cell suspension for submission to analysis.
Gating was performed using this flow cytometer based on forward scatter (FSC) and side scatter (SSC); the gating was set for the cell population that was the target of the analysis; and the fluorescent intensity was measured for the cell population within this gating. The analysis was performed so this cell population reached approximately 10,000. […]

FAM-VVRSLVKVVRSLVK-CONH2 ({FAM}-VVRSLVKVVRSLVK-NH2) [Example 1]
MFI (mean fluorescent intensity): 690
introduction of the fluorescent dye (FAM) into the cytoplasm, from the histogram shift (FIG. 1), compared with Example 3 (FAM only) (10 μM): more efficiently introduced
efficiency (cell membrane permeability) compared using the MFI, Example 1 versus Example 2 (10 μM, ratio of MFI values of Table 3): approximately 65.7 times

FAM-KKRTLRKNDRKKR-CONH2 ({FAM}-KKRTLRKNDRKKR-NH2) [Example 2]
MFI (mean fluorescent intensity): 10.5
introduction of the fluorescent dye (FAM) into the cytoplasm, from the histogram shift (FIG. 1), compared with Example 3 (FAM only) (10 μM): more efficiently introduced

5(6)-carboxyfluorescein [Example 3]
MFI (mean fluorescent intensity): 5.9
